Measured values taken from patent US10035766B2, “Compositions for preventing and/or treating lysosomal storage disorders” (Amicus Therapeutics, Inc., priority 2009, dated 2018).
Structures can show the parent of a compound that is named as a salt.

Assays:
[1] = molecular target: T1, GCase (Mus musculus, UniProt P17439); assay: GCase enhancement in brain and spleen after oral dosing over 2 weeks; format: in vivo, mice; design: from tissue; host or cells: brain and spleen of wild-type C57BL/6 mice; conditions: for GCase increase (fold): 9 doses, 24-hour washout; for GCase enhancement in brain and spleen: mice, p.o.
T1 sequence (P17439 20-515): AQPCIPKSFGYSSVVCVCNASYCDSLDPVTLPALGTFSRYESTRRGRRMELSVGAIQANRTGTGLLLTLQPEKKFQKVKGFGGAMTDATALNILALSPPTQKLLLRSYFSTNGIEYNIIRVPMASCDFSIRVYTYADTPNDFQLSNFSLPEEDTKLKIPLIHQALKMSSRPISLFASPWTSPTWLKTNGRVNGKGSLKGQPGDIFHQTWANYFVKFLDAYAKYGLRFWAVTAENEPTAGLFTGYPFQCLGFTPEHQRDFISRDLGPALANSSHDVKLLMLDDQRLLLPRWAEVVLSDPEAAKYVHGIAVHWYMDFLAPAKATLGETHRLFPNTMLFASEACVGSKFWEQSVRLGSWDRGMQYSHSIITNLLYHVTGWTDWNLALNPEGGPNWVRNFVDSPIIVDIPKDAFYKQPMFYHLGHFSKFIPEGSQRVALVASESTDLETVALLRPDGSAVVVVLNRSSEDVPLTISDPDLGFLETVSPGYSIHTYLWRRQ
Protocol: The ability of orally administered test compounds ((3R,4R,5S)-5-(difluoromethyl)piperidine-3,4-diol, (3R,4R,5S)-5-(1-fluoroethyl)piperidine-3,4-diol, (3R,4R,5S)-5-((R)-1-fluoropropyl)piperidine-3,4-diol hydrochloride, or (3R,4R,5S)-5-benzylpiperidine-3,4-diol) to elevate GCase levels was assessed in mice. For this purpose, 8-week old wild-type male mice (C57BL/6) were administered a single p.o. (gavage) dose of a compound of the present invention (i.e., (3R,4R,5S)-5-(difluoromethyl)piperidine-3,4-diol, (3R,4R,5S)-5-(1-fluoroethyl)piperidine-3,4-diol, (3R,4R,5S)-5-((R)-1-fluoropropyl)piperidine-3,4-diol hydrochloride, or (3R,4R,5S)-5-benzylpiperidine-3,4-diol). The dosing solutions were prepared in water. Compounds were administered over 2 weeks as follows: week 1, Mon-Fri (On), Sat-Sun (Off); week 2, Mon-Thu (On); necropsy on Friday. Thus, a total of 9 doses (dosing solutions prepared fresh every day) were given to each mouse, with a 24-hour washout between the last dose and necropsy.
Plasma was collected by spinning blood at 2700 g for 10 minutes at 4° C. Liver, spleen, lung, and brain tissues were removed, washed in cold PBS, blotted dry, flash frozen on dry ice, and stored at −80° C. until analysis. GCase levels were measured by homogenizing approximately 50 mg tissue in 500 μL McIlvane (MI) buffer (100 mM sodium citrate, 200 mM sodium phosphate dibasic, 0.25% sodium taurocholate, and 0.1% Triton X-100, pH 5.2) at pH 5.2 for 3-5 seconds on ice with a micro homogenizer. Homogenates were then incubated at room temperature without and with 2.5 mM conduritol-B-epoxide (CBE) for 30 min. Finally, 3.7 mM 4-methylumbeliferryl-β-glucoside (4-MUG) substrate was added and incubated at 37° C. for 60 min. […] Fluorescence was measured on a plate reader for 1 sec/well using 355 nm excitation and 460 nm emission. Total protein was determined in lysates using the MicroBCA kit according to the manufacturer's instructions. A 4-methylumbelliferone (4-MU) standard curve ranging from 1.0 nM to 50 μM was run in parallel for conversion of raw fluorescence data to absolute GCase activity (in the presence and absence of CBE) and expressed as nanomoles of 4-MU released per milligram of protein per hour (nmol/mg protein/hr). GCase levels and protein levels were calculated using Microsoft Excel (Redmond, Wash.) and GraphPad Prism version 4.02.

[2] = Blood brain barrier penetration: plasma and brain levels after single oral dose; format: in vivo; conditions: mice, single 30 mg/kg (free base equivalent) p.o.
Protocol: For this purpose, 8-week old wild-type male mice (C57BL/6) were administered a single 30 mg/kg (free base equivalent) p.o. dose of reference or test compound by gavage (n=3 mice per time point). Dosing solutions were prepared in water. After dosing, mice were euthanized with CO2 at the following time points: 0-, 0.5-, 1-, and 4-hour post-dose. […] Similarly, brains were collected from each mouse. Plasma was derived by spinning whole blood at 2,700×g for 10 minutes at 4° C. followed by storage on dry ice. Whole brains were washed in cold PBS to remove contaminating blood, blotted dry, flash frozen on dry ice, and ultimately stored at −80° C. until analysis. To prepare brain samples for analysis, 50-100 mg of tissue was homogenized in […] of water/mg tissue. Samples were then clarified by centrifugation. Next, 25 μl of the brain homogenate supernatant or 25 μl of plasma were combined with 25 μl of acetonitrile:water (95/5). […] Samples were again clarified by centrifugation and 75 μl of the supernatant was combined with 75 μl of acetonitrile. Samples were then analyzed for compound levels by LC-MS/MS at PPD Inc. (3230 Deming Way, Middleton, Wis. 53562). In brief, a Thermo Betasil, Silica-100, 50×3 mm, 5μ column equilibrated with a mixture of mobile phase consisting of 5 mM ammonium formate and 0.05% formic acid in (A) 95:5 acetonitrile:water or (B) 70:20:10 methanol:water:acetonitrile was employed. Between 20 and 30 μl sample was injected for analysis. For calculating drug concentrations, raw data for plasma (ng/mL) and brain (ng/g) was converted to nM using the molecular weight of respective compounds and assuming 1 g of tissue is equivalent to 1 mL volume. Concentration as a function of time was plotted in GraphPad Prism version 4.02.

[3] = brain, 10 mg/kg FBE p.o., (1) BLQ <[…], (2) BLQ <2.2 nmol/kg
[4] = spleen, 10 mg/kg FBE p.o., (1) BLQ <6.8 nmol/kg, (2) BLQ <7.9 nmol/kg
[5] = spleen, 10 mg/kg FBE p.o., in µM
[6] = spleen, 100 mg/kg FBE p.o., in µM

CC(F)[C@H]1CNC[C@@H](O)[C@@H]1O (single isomer, unassigned)
GCase increase (fold) ([1]; brain, 10 mg/kg FBE p.o.): 1.5 fold | GCase enhancement in brain and spleen [1]: significant GCase enhancement in brain and spleen | Compound concentration in GCase assay ([1]; spleen, 10 mg/kg FBE p.o.): BLQ | blood brain barrier crossing compared to IFG-tartrate [2]: crossed the blood brain barrier more readily as compared to IFG-tartrate | levels detected in brain compared to IFG-tartrate [2]: higher levels

O[C@H]1[C@H](O)CNC[C@@H]1C(F)F [Compound 6, (3R,4R,5S)-5-(Difluoromethyl)piperdine 3,4-diol Hydrochloride]
Compound concentration in tissue 2.2 nmol/kg [1, 3]: 55 nmol/kg | Compound concentration in tissue 2.2 nmol/kg ([1]; brain, 100 mg/kg FBE p.o.): 301 nmol/kg | GCase enhancement in brain and spleen [1]: significant GCase enhancement in brain and spleen | Compound concentration in tissue [1, 4]: 100 nmol/kg | Compound concentration in GCase assay [1, 5]: 0.0003 | Compound concentration in tissue ([1]; spleen, 100 mg/kg FBE p.o.): 435 nmol/kg | Compound concentration in GCase assay [1, 6]: 0.0015 | blood brain barrier crossing compared to IFG-tartrate [2]: crossed the blood brain barrier more readily as compared to IFG-tartrate | levels detected in brain compared to IFG-tartrate [2]: higher levels

CC[C@@H](F)[C@H]1CNC[C@@H](O)[C@@H]1O.Cl [(3R,4R,5S)-5-((R)-1-fluoropropyl)-piperidine-3,4-diol hydrochloride]
Compound concentration in GCase assay (μM) ([1]; brain, 10 mg/kg FBE p.o.): BLQ | GCase increase (fold) ([1]; brain, 10 mg/kg FBE p.o.): 0.9 fold | Compound concentration in tissue 2.2 nmol/kg [1, 3]: BLQ(2) | Compound concentration in tissue 2.2 nmol/kg ([1]; brain, 100 mg/kg FBE p.o.): 38 nmol/kg | GCase increase (fold) ([1]; brain, 100 mg/kg FBE p.o.): 1.1 fold | GCase increase (fold) ([1]; spleen, 10 mg/kg FBE p.o.): 0.7 fold | Compound concentration in tissue [1, 4]: 21 nmol/kg | Compound concentration in GCase assay [1, 5]: 0.0001 | Compound concentration in tissue ([1]; spleen, 100 mg/kg FBE p.o.): 60 nmol/kg | GCase increase (fold) ([1]; spleen, 100 mg/kg FBE p.o.): 0.7 fold | Compound concentration in GCase assay [1, 6]: 0.0002 | blood brain barrier crossing compared to IFG-tartrate [2]: crossed the blood brain barrier more readily as compared to IFG-tartrate | levels detected in brain compared to IFG-tartrate [2]: higher levels

O[C@@H]1[C@@H](Cc2ccccc2)CNC[C@H]1O [(3R,4R,5S)-5-benzyl-piperidine-3,4-diol]
GCase increase (fold) ([1]; brain, 10 mg/kg FBE p.o.): 1.2 fold | GCase increase (fold) ([1]; brain, 100 mg/kg FBE p.o.): 1.4 fold | GCase enhancement in brain and spleen [1]: significant GCase enhancement in brain and spleen | GCase increase (fold) ([1]; spleen, 10 mg/kg FBE p.o.): 1.0 fold | GCase increase (fold) ([1]; spleen, 100 mg/kg FBE p.o.): 1.2 fold | blood brain barrier crossing compared to IFG-tartrate [2]: crossed the blood brain barrier more readily as compared to IFG-tartrate | levels detected in brain compared to IFG-tartrate [2]: higher levels
